Source: ChEMBL document CHEMBL4715697, “Synthesis and biological activity of benzamide DNA minor groove binders” (2016)

What was measured:
Format in all cases: functional
[1] = test system: NCI-H322M; test: Growth inhibition of human NCI-H322M cells assessed as cell growth at 100 uM incubated for 48 hrs by sulforhodamine B assay relative to control; conditions: read-out: Activity
[2] = test system: NCI-H226; test: Growth inhibition of human NCI-H226 cells assessed as cell growth at 0.01 uM incubated for 48 hrs by sulforhodamine B assay relative to control; conditions: read-out: Activity
[3] = test system: NCI-H23; test: Growth inhibition of human NCI-H23 cells incubated for 48 hrs by sulforhodamine B assay
[4] = test system: K562; test: Growth inhibition of human K562 cells assessed as cell growth at 1 uM incubated for 48 hrs by sulforhodamine B assay relative to control; conditions: read-out: Activity
[5] = test system: NCI/ADR-RES; test: Growth inhibition of human NCI/ADR-RES cells assessed as cell growth at 0.1 uM incubated for 48 hrs by sulforhodamine B assay relative to control; conditions: read-out: Activity
[6] = test system: UACC-257; test: Growth inhibition of human UACC-257 cells assessed as cell growth at 100 uM incubated for 48 hrs by sulforhodamine B assay relative to control; conditions: read-out: Activity
[7] = test system: NCI-H460; test: Growth inhibition of human NCI-H460 cells assessed as cell growth at 1 uM incubated for 48 hrs by sulforhodamine B assay relative to control; conditions: read-out: Activity
[8] = test system: MOLT-4; test: Growth inhibition of human MOLT-4 cells assessed as cell growth at 100 uM incubated for 48 hrs by sulforhodamine B assay relative to control; conditions: read-out: Activity
[9] = test system: A549; test: Growth inhibition of human A549/ATCC cells incubated for 48 hrs by sulforhodamine B assay
[10] = test system: TK-10; test: Growth inhibition of human TK-10 cells assessed as cell growth at 100 uM incubated for 48 hrs by sulforhodamine B assay relative to control; conditions: read-out: Activity
[11] = test system: MDA-MB-231; test: Growth inhibition of human MDA-MB-231 cells assessed as cell growth at 0.1 uM incubated for 48 hrs by sulforhodamine B assay relative to control; conditions: read-out: Activity
[12] = test system: DU-145; test: Growth inhibition of human DU-145 cells assessed as cell growth at 0.01 uM incubated for 48 hrs by sulforhodamine B assay relative to control; conditions: read-out: Activity
[13] = test system: NCI-H322M; test: Growth inhibition of human NCI-H322M cells assessed as cell growth at 0.1 uM incubated for 48 hrs by sulforhodamine B assay relative to control; conditions: read-out: Activity
[14] = test system: U-251; test: Growth inhibition of human U-251 cells assessed as cell growth at 0.1 uM incubated for 48 hrs by sulforhodamine B assay relative to control; conditions: read-out: Activity
[15] = test system: OVCAR-8; test: Growth inhibition of human OVCAR-8 cells incubated for 48 hrs by sulforhodamine B assay
[16] = test system: SF-295; test: Growth inhibition of human SF-295 cells assessed as cell growth at 100 uM incubated for 48 hrs by sulforhodamine B assay relative to control; conditions: read-out: Activity
[17] = test system: NCI-H226; test: Growth inhibition of human NCI-H226 cells assessed as cell growth at 1 uM incubated for 48 hrs by sulforhodamine B assay relative to control; conditions: read-out: Activity
[18] = test system: HCC 2998; test: Growth inhibition of human HCC 2998 cells assessed as cell growth at 0.01 uM incubated for 48 hrs by sulforhodamine B assay relative to control; conditions: read-out: Activity
[19] = test system: NCI-H460; test: Growth inhibition of human NCI-H460 cells incubated for 48 hrs by sulforhodamine B assay
[20] = test system: KM12; test: Growth inhibition of human KM12 cells assessed as cell growth at 0.01 uM incubated for 48 hrs by sulforhodamine B assay relative to control; conditions: read-out: Activity
[21] = test system: SK-MEL-28; test: Growth inhibition of human SK-MEL-28 cells assessed as cell growth at 0.01 uM incubated for 48 hrs by sulforhodamine B assay relative to control; conditions: read-out: Activity
[22] = test system: RPMI-8226; test: Growth inhibition of human RPMI-8226 cells assessed as cell growth at 0.01 uM incubated for 48 hrs by sulforhodamine B assay relative to control; conditions: read-out: Activity
[23] = test system: U-251; test: Growth inhibition of human U-251 cells incubated for 48 hrs by sulforhodamine B assay
[24] = test system: OVCAR-4; test: Growth inhibition of human OVCAR-4 cells assessed as cell growth at 1 uM incubated for 48 hrs by sulforhodamine B assay relative to control; conditions: read-out: Activity
[25] = test system: NCI-H322M; test: Growth inhibition of human NCI-H322M cells assessed as cell growth at 0.01 uM incubated for 48 hrs by sulforhodamine B assay relative to control; conditions: read-out: Activity
[26] = test system: T47D; test: Growth inhibition of human T47D cells assessed as cell growth at 0.01 uM incubated for 48 hrs by sulforhodamine B assay relative to control; conditions: read-out: Activity
[27] = test system: NCI-H460; test: Growth inhibition of human NCI-H460 cells assessed as cell growth at 100 uM incubated for 48 hrs by sulforhodamine B assay relative to control; conditions: read-out: Activity
[28] = test system: OVCAR-5; test: Growth inhibition of human OVCAR-5 cells assessed as cell growth at 1 uM incubated for 48 hrs by sulforhodamine B assay relative to control; conditions: read-out: Activity
[29] = test system: Malme-3M; test: Growth inhibition of human Malme-3M cells assessed as cell growth at 0.1 uM incubated for 48 hrs by sulforhodamine B assay relative to control; conditions: read-out: Activity
[30] = test system: MDA-MB-468; test: Growth inhibition of human MDA-MB-468 cells assessed as cell growth at 0.1 uM incubated for 48 hrs by sulforhodamine B assay relative to control; conditions: read-out: Activity
[31] = test system: PC-3; test: Growth inhibition of human PC-3 cells incubated for 48 hrs by sulforhodamine B assay
[32] = test system: SF-295; test: Growth inhibition of human SF-295 cells assessed as cell growth at 0.01 uM incubated for 48 hrs by sulforhodamine B assay relative to control; conditions: read-out: Activity
[33] = test system: HCC 2998; test: Growth inhibition of human HCC 2998 cells assessed as cell growth at 100 uM incubated for 48 hrs by sulforhodamine B assay relative to control; conditions: read-out: Activity
[34] = test system: A498; test: Growth inhibition of human A498 cells incubated for 48 hrs by sulforhodamine B assay
[35] = test system: U-251; test: Growth inhibition of human U-251 cells assessed as cell growth at 1 uM incubated for 48 hrs by sulforhodamine B assay relative to control; conditions: read-out: Activity
[36] = read-out: LC50 (the source's name)
[37] = read-out: pLC50 (the source's name) (converted)

CC(=O)Nc1cc(CCl)cc(NC(=O)c2ccc(C(=O)Nc3cccc(NC(=O)CCCN(C)C)c3)cc2)c1
growth at 100 µM [1]: 103% | growth at 0.01 µM [2]: 95% | GI50 ([3]; read-out: GI50): > 100 µM | CC50 [3, 36]: > 100 µM | TGI ([3]; read-out: TGI): > 100 µM | GI50 ([3]; read-out: pGI50 (converted)): > 100 µM | CC50 [3, 37]: > 100 µM | TGI ([3]; read-out: pTGI): > 100 µM | growth at 1 µM [4]: 96% | growth at 0.1 µM [5]: 98% | growth at 100 µM [6]: 105% | growth at 1 µM [7]: 109% | growth at 100 µM [8]: 99% | GI50 ([9]; read-out: GI50): > 100 µM | CC50 [9, 36]: > 100 µM | TGI ([9]; read-out: TGI): > 100 µM | GI50 ([9]; read-out: pGI50 (converted)): > 100 µM | CC50 [9, 37]: > 100 µM | TGI ([9]; read-out: pTGI): > 100 µM | growth at 100 µM [10]: 129% | growth at 0.1 µM [11]: 106% | growth at 0.01 µM [12]: 106% | growth at 0.1 µM [13]: 103% | growth at 0.1 µM [14]: 94% | GI50 ([15]; read-out: GI50): > 100 µM | CC50 [15, 36]: > 100 µM | TGI ([15]; read-out: TGI): > 100 µM | GI50 ([15]; read-out: pGI50 (converted)): > 100 µM | CC50 [15, 37]: > 100 µM | TGI ([15]; read-out: pTGI): > 100 µM | growth at 100 µM [16]: 38% | growth at 1 µM [17]: 91% | growth at 0.01 µM [18]: 102% | GI50 ([19]; read-out: GI50): > 100 µM | CC50 [19, 36]: > 100 µM | TGI ([19]; read-out: TGI): > 100 µM | GI50 ([19]; read-out: pGI50 (converted)): > 100 µM | CC50 [19, 37]: > 100 µM | TGI ([19]; read-out: pTGI): > 100 µM | growth at 0.01 µM [20]: 105% | growth at 0.01 µM [21]: 98% | growth at 0.01 µM [22]: 110% | GI50 ([23]; read-out: GI50): > 100 µM | CC50 [23, 36]: > 100 µM | TGI ([23]; read-out: TGI): > 100 µM | GI50 ([23]; read-out: pGI50 (converted)): > 100 µM | CC50 [23, 37]: > 100 µM | TGI ([23]; read-out: pTGI): > 100 µM | growth at 1 µM [24]: 91% | growth at 0.01 µM [25]: 106% | growth at 0.01 µM [26]: 106% | growth at 100 µM [27]: 99% | growth at 1 µM [28]: 83% | growth at 0.1 µM [29]: 104% | growth at 0.1 µM [30]: 84% | GI50 ([31]; read-out: GI50): > 100 µM | CC50 [31, 36]: > 100 µM | TGI ([31]; read-out: TGI): > 100 µM | GI50 ([31]; read-out: pGI50 (converted)): > 100 µM | CC50 [31, 37]: > 100 µM | TGI ([31]; read-out: pTGI): > 100 µM | growth at 0.01 µM [32]: 74% | growth at 100 µM [33]: 93% | GI50 ([34]; read-out: GI50): > 100 µM | LC50 (concentration giving 50% net cell kill) ([34]; read-out: LC50): > 100 µM | TGI ([34]; read-out: TGI): > 100 µM | GI50 ([34]; read-out: pGI50 (converted)): > 100 µM | LC50 (concentration giving 50% net cell kill) ([34]; read-out: pLC50 (converted)): > 100 µM | TGI ([34]; read-out: pTGI): > 100 µM | growth at 1 µM [35]: 93%
